Results as given in patent publication US8889680B2, “Treatment or prevention of fungal infections with PDK1 inhibitors” (priority 2010, dated 2014).

How the values were obtained:
[1] = tested on: C. albicans; experiment: Antifungal susceptibility (microdilution MIC), C. albicans; type: cell-based, Candida albicans
Experimental: (§1) The antifungal activity of protein kinase inhibitors was determined using the Clinical and Laboratory Science Institute microdilution protocol M-27A2. Biofilm antifungal activity was determined using the protocol of Pierce et al. and is reported as MIC50S (Pierce et al., Nat. Protoc. 3:1494-1500 (2008)). Disk diffusion assays were performed as described previously (Roelants et al., Microbiology 150:3289-304 (2004)).
To identify PKIs that disrupt yeast cell wall integrity, a four-part screening strategy as outlined in FIG. 1A was designed. The primary screen in the approach detects molecules that cause yeast cells to lyse, a characteristic phenotype of yeast cell wall damage, by use of an assay that detects the release of adenylate kinase (AK) to the growth medium as a reporter of yeast cell lysis. Previously it was shown that the AK assay in HTS format can detect as few as 500 lysed yeast cells in a sample of 10^5 cells (Didone et al., Nat. Protocol. 5:1107-14 (2010)). PKIs that cause yeast cells lysis (hits) were then re-confirmed by AK dose-response assays and tested for in vitro antifungal activity against the human fungal pathogen C. albicans using standard microdilution susceptibility testing. Last, to select PKIs specific for the CWI signaling pathway, the set of hits were tested for their ability to block the activation of a transcriptional reporter of the CWI-signaling pathway. […]

[2] = tested on: C. glabrata; experiment: Antifungal susceptibility (microdilution MIC), C. glabrata; type: cell-based, Candida glabrata
Experimental: as §1
(§2) (FIG. 3A). […] Since the echinocandin class of cell wall-targeted 1,3-β-glucan synthase inhibitors is not active against C. neoformans, this represents one of the few cell wall-targeted molecules with activity against this important pathogen.

[3] = tested on: leukemic and glioblastoma cells; details: cited from earlier work
[4] = tested on: Pkh1/2-dependent phosphorylation of Pil1-GFP; experiment: Pil1-GFP phosphorylation immunoblot; type: cell-based, S. cerevisiae; details: sub-inhibitory KP-372-1 (1/2 MIC); cells with endogenous Pkh1/2 and cells over-expressing Pkh2; Western blot
Experimental: Cells were harvested at the indicated times and analyzed by Pil1-GFP immunoblotting. Pil1-P corresponds to the Pkh1/2-dependent phosphorylated Pil1 species.
Western blot analysis of Pil1-GFP was performed essentially as described (Luo et al., J. Biol. Chem. 283:10433-44 (2008)). Briefly, Pil1-GFP containing cells were harvested and lysed using the SDS-PAGE sample buffer method. Extracts corresponding to equivalent numbers of cells were fractionated by SDS-PAGE electrophoresis on 7% gels, transferred to nitrocellulose and blocked overnight in 50 mM Tris pH 7.5/150 mM NaCl/0.05% (v/v) Tween-20+5% (w/v) non-fat skim milk. Pil1-GFP was detected using mouse anti-GFP (1:10,000 dilution, Clontech Living Colors) (Clontech; Mountain View, Calif.) as primary and goat anti-mouse antibodies conjugated with horse-radish peroxidase (1:10,000) followed by visualization with ECL-Plus reagents (Amersham; Piscataway, N.J.).
S. cerevisiae strains containing a chromosomally-integrated PIL1-GFP allele were transformed with a vector control or a plasmid expressing PKH2 under the control of a galactose-inducible promoter. […] The phosphorylation status of Pil1-GFP was followed over a 3.5 hour time course by Western blot.

[5] = tested on: normal cells; details: cited from earlier work
[6] = tested on: C. albicans clinical reference strain SC5314; experiment: Adenylate kinase (AK) release assay of yeast cell lysis; type: cell-based, Candida albicans; design: dose or concentration left out as unconfirmed; details: extracellular AK activity relative to DMSO-treated cells
Experimental: AK assays were performed according to a recently published protocol (Didone et al., Nat. Protocol. 5:1107-14 (2010)) using the 96-well plate version using the Toxi-Light Assay kit (Lonza; Basel, Switzerland). Luminescence was measured using a SpectraMax plate reader (Molecular Devices; Sunnyvale, Calif.). […] To identify PKIs that disrupt yeast cell wall integrity, a four-part screening strategy as outlined in FIG. 1A was designed. The primary screen in the approach detects molecules that cause yeast cells to lyse, a characteristic phenotype of yeast cell wall damage, by use of an assay that detects the release of adenylate kinase (AK) to the growth medium as a reporter of yeast cell lysis. […] Last, to select PKIs specific for the CWI signaling pathway, the set of hits were tested for their ability to block the activation of a transcriptional reporter of the CWI-signaling pathway. To rapidly survey a sample of well-characterized PKIs, the commercially available InhibitorSelect collection, a library of 80 PKIs with diverse mechanistic and structural characteristics, was utilized. C. albicans clinical reference strain SC5314 was screened against the InhibitorSelect library for molecules that caused a release of AK into the growth medium.

[7] = tested on: Candida spp.; experiment: Antifungal susceptibility (microdilution MIC), Candida spp.; type: cell-based
Experimental: as §1, §2

With `O=C1c2ccccc2-c2nc3nnnn3nc21.O=C1c2ccccc2-c2nn3nnnc3nc21` [KP-372-1] the “antifungal activity (in words)” value ([1]; C. albicans) was “highly active”, the MIC ([1]; C. albicans growth assay, Table 1) was 3 µg/mL and the “antifungal activity (in words)” value [2] was “highly active”. For the same molecule, the “activity against leukemic and glioblastoma cells” value [3] was “potent activity”, the “phosphorylation of Pil1-GFP” value [4] was “rapidly blocked” and the “cytotoxicity toward normal cells” value [5] was “without significant cytotoxicity”. For the same molecule, the “Fold increase in AK release” value [6] was 4 Fold, the MIC ([7]; Candida spp., FIG. 7 legend) was 3 to 25 µg/mL and the “antifungal activity (in words)” value ([7]; other Candida spp. compared with C. albicans and C. glabrata) was “less so”.
